Here are results for four molecules from patent publication US20050003509A1, “Method for modulating C.albicans” (priority 2003, published 2005).

For experiment [1], the system named is C.albicans. The experiment can be described thus: induction of morphological transition (hyphae) in buffer. The settings on record: 10 mM proline or 2.5 mM Glc-Nac in 10 mM MES pH 6.4, 12 hours, 37° C. In kind it is cell-based. The protocol:
To test this, stains were grown in YPD, as described supra, washed, and were resuspended in buffer at an OD600 of 1, or buffer (10 MM MES, pH 6.4) containing either 10 mM proline, or 2.5 mM Glc-Nac. The suspensions were incubated for 12 hours, at 37° C., after which the suspensions were examined microscopically.

The test system of experiment [2] is S.cervesiae strain FGY145. The experiment can be described thus: growth of transformed shr3Δ6 S.cervesiae strain FGY145 with toxic amino acids. Type of experiment: cell-based, S.cerevisiae. The conditions noted are these: 30° C., six days. The procedure: Standard culture conditions and media for S.cervesiae and C.albicans have been described by Sherman, in Guthrie, ed. Guide to Yeast Genetics And Molecular Biology (Academic Press, 1991), pp. 3-21, incorporated by reference. To elaborate, Ura^− strains of C.albicans were grown in standard media, supplemented with 25 μg/ml of uridine. Tests on S.cerevisiae were carried out in SD medium supplemented with histidine, as well as various toxic amino acid analogs, i.e., L-canaranine (1 μg/ml), L-azetidine-2-carboxylate (500 μg/ml), B-chloro-D, L-alanine (100 μg/ml), p-fluoro-D, L-phenylalanine (400 μg/ml), D, L-ethionine (300 μg/ml), and 2-aminoethyl-L-cysteine (225 μg/ml). Ljungdahl, et al., Cell, 71:463-478 (1992), was followed to produce SPD and SPD containing 30 mM histidine.
Cell suspension of shr3Δ6 S.cervesiae strain FGY145 described by Gilstring, et al., Mol. Cell Biol., 10:3549-3565 (1999), were transformed with either control plasma pRS316, pPL210, which encodes SHR3 and is described by Ljungdahl, et al., supra, or pPM20, which encodes CSH3, and is described supra. The transformants were spotted on the described SD media, and grown in the presence of the toxic amino acids described supra. Suspensions of the cells were also grown on SPD, and SPD containing 30 mM histidine. […]

Experiment [3] deals with C.albicans. Put plainly: growth on YNB medium with lysine as sole nitrogen source. The conditions noted are these: 0, 0.1, 1 and 3 mM lysine. Type of experiment: cell-based. The protocol: Cells were then grown on YNB medium, containing varying concentrations of lysine (0, 0.1, 1 and 3 mM), as sole nitrogen source. A striking gene dosage effect was observed. As expected, none of the strains were able to grow in the absence of lysine, whereas they grew weakly when 0.1 mM lysine was present, showing the C.albicans can metabolize lysine. […] The heterozygous strains have balanced the opposing activities.

`CC(=O)N[C@H]1C(O)O[C@H](CO)[C@@H](O)[C@@H]1O` (stereo partly drawn) [Glc-Nac, N-acetyl glucosamine]: the hyphal development entry in the experiment on C.albicans [1] ((+/+) wild type) and in the experiment with C.albicans [1] ((−/−) cells) was “extensive hyphal development” each time.

In the case of `N[C@@H](Cc1c[nH]cn1)C(=O)O` [histidine], the growth sensitivity entry was “sensitive” in experiment [2] (transformants carrying SHR3 (CSH3 transformants indistinguishable)) and “resistant” in experiment [2] (transformants with control plasmid pRS316).

Regarding `NCCCC[C@H](N)C(=O)O` [lysine], the figures for the “growth with increasing lysine concentration” value in the experiment with C.albicans [3] (CSH3/CSH3 (+/+) strain), with C.albicans [3] (heterozygous strains) and in the experiment with C.albicans [3] (homozygous null mutant) were “decrease at concentrations above 1 mM”, “robust growth at concentrations greater than 1 mM” and “improved noticeably”, respectively.

Regarding `O=C(O)[C@@H]1CCCN1` [proline], the hyphal development result is given as “developed hyphae readily” in the experiment on C.albicans [1] ((+/+) wild type) and “only a few cells with short germ tubules” in the experiment on C.albicans [1] ((−/−) cells).
